The target of experiment [1] is T1, HCV NS3/4A protease complex, BMS strain (UniProt P27958, species not given/STRAIN_BMS).
T1 construct: other: NS3/4A BMS strain; activity range class; numeric values, unit not given; said of H77 and J4L6S; fused on or other part: A three-lysine solubilising tail at the C-terminus of NS4A; A His tag is implied by the pET21b vector and Ni-NTA purification; Both are printed for the H77 and J4L6S constructs and apply to BMS by inference
The experiment in a line: FRET peptide assay to monitor HCV NS3/4A proteolytic activity (BMS strain). It is filed as biochemical, Hepatitis C virus (genotype 1a). From the text: HCV NS3 protease complexes, derived from the BMS strain, H77 strain or J4L6S strain, were generated, as described below. These purified recombinant proteins were generated for use in a homogeneous assay (see below) to provide an indication of how effective compounds of the present disclosure would be in inhibiting HCV NS3 proteolytic activity.
Serum from an HCV-infected patient was obtained from Dr. T. Wright, San Francisco Hospital. An engineered full-length cDNA (compliment deoxyribonucleic acid) template of the HCV genome (BMS strain) was constructed from DNA fragments obtained by reverse transcription-PCR (RT-PCR) of serum RNA (ribonucleic acid) and using primers selected on the basis of homology between other genotype 1a strains. From the determination of the entire genome sequence, a genotype 1a was assigned to the HCV isolate according to the classification of Simmonds et al. (See P Simmonds, K A Rose, S Graham, S W Chan, F McOmish, B C Dow, E A Follett, P L Yap and H Marsden, J. Clin. Microbiol., 31(6), 1493-1503 (1993)). […] The infectious clones, H77 (1a genotype) and J4L6S (1b genotype) were obtained from R. Purcell (NIH) and the sequences are published in Genbank (AAB67036, see Yanagi, M., Purcell, R. H., Emerson, S. U. and Bukh, J. Proc. Natl. Acad. Sci. U.S.A. 94(16), 8738-8743 (1997); AF054247, see Yanagi, M., St Claire, M., Shapiro, M., Emerson, S. U., Purcell, R. H. and Bukh, J. Virology 244 (1), 161-172. (1998)).
NS3/4A protease complex-containing fractions were pooled and loaded on a desalting column Superdex-S200 pre-equilibrated with buffer D (25 mM HEPES, pH 7.5, 20% glycerol, 300 mM NaCl, 0.2% Triton X-100, 10 mM βME). Sample was loaded at a flow rate of 1 mL/min. NS3/4A protease complex-containing fractions were pooled and concentrated to approximately 0.5 mg/ml. The purity of the NS3/4A protease complexes, derived from the BMS, H77 and J4L6S strains, were judged to be greater than 90% by SDS-PAGE and mass spectrometry analyses. The enzyme was stored at −80° C., thawed on ice and diluted prior to use in assay buffer.
The purpose of this in vitro assay was to measure the inhibition of HCV NS3 protease complexes, derived from the BMS strain, H77 strain or J4L6S strain, as described above, by compounds of the present disclosure. This assay provides an indication of how effective compounds of the present disclosure would be in inhibiting HCV NS3 proteolytic activity.
In order to monitor HCV NS3/4A protease activity, an NS3/4A peptide substrate was used. The substrate was RET S1 (Resonance Energy Transfer Depsipeptide Substrate; AnaSpec, Inc. cat #22991) (FRET peptide), described by Taliani et al. in Anal. Biochem. 240(2):60-67 (1996). The sequence of this peptide is loosely based on the NS4A/NS4B natural cleavage site for the HCV NS3 protease except there is an ester linkage rather than an amide bond at the cleavage site. The peptide also contains a fluorescence donor, EDANS, near one end of the peptide and an acceptor, DABCYL, near the other end. The fluorescence of the peptide is quenched by […] resonance energy transfer (RET) between the donor and the acceptor, but as the NS3 protease cleaves the peptide the products are released from RET quenching and the fluorescence of the donor becomes apparent.
The peptide substrate was incubated with one of the three recombinant NS3/4A protease complexes, in the absence or presence of a compound of the present disclosure. The inhibitory effects of a compound were determined by monitoring the formation of fluorescent reaction product in real time using a Cytofluor Series 4000.
Assay buffer: 50 mM HEPES, pH 7.5; 0.15 M NaCl; 0.1% Triton; 15% Glycerol; 10 mM βME. Substrate: 2 μM final concentration (from a 2 mM stock solution in DMSO stored at −20° C.). HCV NS3/4A protease type 1a (1b), 2-3 nM final concentration (from a 5 μM stock solution in 25 mM HEPES, pH 7.5, 20% glycerol, 300 mM NaCl, 0.2% Triton-X100, 10 mM βME). […]

Experiment [2] has as its system HCV replicon (strain 1b) in HUH-7 cells. The experiment in a line: HCV replicon FRET assay. It is filed as cell-based, Hepatitis C virus. To be noted: Hepatitis C virus, Huh-7, read-out: HCV Pro Replicon (EC50), HCV replicon cell assay; activity range class. From the text:
An HCV replicon whole cell system was established as described by Lohmann V, Korner F, Koch J, Herian U, Theilmann L, Bartenschlager R., Science 285(5424): 110-3 (1999). This system enabled us to evaluate the effects of our HCV Protease compounds on HCV RNA replication. Briefly, using the HCV strain 1b sequence described in the Lohmann paper (Assession number: AJ238799), an HCV cDNA was synthesized by Operon Technologies, Inc. (Alameda, Calif.), and the full-length replicon was then assembled in plasmid pGem9zf(+) (Promega, Madison, Wis.) using standard molecular biology techniques. The replicon consists of (i) the HCV 5′ UTR fused to the first 12 amino acids of the capsid protein, (ii) the neomycin phosphotransferase gene (neo), (iii) the IRES from encephalomyocarditis virus (EMCV), and (iv) HCV NS3 to NS5B genes and the HCV 3′ UTR. Plasmid DNAs were linearized with ScaI and RNA transcripts were synthesized in vitro using the T7 MegaScript transcription kit (Ambion, Austin, Tex.) according to manufacturer's directions. In vitro transcripts of the cDNA were transfected into the human hepatoma cell line, HUH-7. […] Resulting cell lines were characterized for positive and negative strand RNA production and protein production over time.
The HCV replicon FRET assay was developed to monitor the inhibitory effects of compounds described in the disclosure on HCV viral replication. HUH-7 cells, constitutively expressing the HCV replicon, were grown in Dulbecco's Modified Eagle Media (DMEM) (Gibco-BRL) containing 10% Fetal calf serum (FCS) (Sigma) and 1 mg/ml G418 (Gibco-BRL). Cells were seeded the night before (1.5×10^4 cells/well) in 96-well tissue-culture sterile plates. Compound and no compound controls were prepared in DMEM containing 4% FCS, 1:100 Penicillin/Streptomysin (Gibco-BRL), 1:100 L-glutamine and 5% DMSO in the dilution plate (0.5% DMSO final concentration in the assay). Compound/DMSO mixes were added to the cells and incubated for 4 days at 37° C. After 4 days, cells were first assessed for cytotoxicity using alamar Blue (Trek Diagnotstic Systems) for a CC50 reading. The toxicity of compound (CC50) was determined by adding 1/10th volume of alamarBlue to the media incubating the cells. After 4 hours, the fluorescence signal from each well was read, with an excitation wavelength at 530 nm and an emission wavelength of 580 nm, using the Cytofluor Series 4000 (Perspective Biosystems). Plates were then rinsed thoroughly with Phosphate-Buffered Saline (PBS) (3 times 150 μl).

Setting [3] is: read-out: HCV Protease (IC50); NS3/4A BMS strain; activity range class.

SMILES strings stand for the structures. Where two headings read alike, the source gives them in different places.

T1 sequence (P27958 1027-1657, change not shown, one chain of several): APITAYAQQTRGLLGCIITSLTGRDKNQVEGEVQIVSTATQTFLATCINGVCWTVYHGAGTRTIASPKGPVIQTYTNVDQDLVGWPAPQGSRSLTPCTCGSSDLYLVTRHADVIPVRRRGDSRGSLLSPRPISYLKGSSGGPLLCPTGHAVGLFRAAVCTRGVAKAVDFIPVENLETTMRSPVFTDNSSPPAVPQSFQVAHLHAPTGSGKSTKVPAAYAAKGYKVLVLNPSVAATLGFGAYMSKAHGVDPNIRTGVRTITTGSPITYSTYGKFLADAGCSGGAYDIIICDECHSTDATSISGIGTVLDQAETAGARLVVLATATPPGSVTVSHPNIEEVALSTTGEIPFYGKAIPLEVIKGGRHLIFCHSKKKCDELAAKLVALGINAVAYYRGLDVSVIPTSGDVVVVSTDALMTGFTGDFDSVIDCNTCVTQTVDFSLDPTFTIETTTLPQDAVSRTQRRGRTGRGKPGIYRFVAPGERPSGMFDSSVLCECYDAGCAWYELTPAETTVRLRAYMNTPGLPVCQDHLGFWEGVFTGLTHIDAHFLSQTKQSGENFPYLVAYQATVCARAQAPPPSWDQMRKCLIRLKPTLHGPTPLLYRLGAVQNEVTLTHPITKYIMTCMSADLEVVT

With `C=C[C@@H]1C[C@]1(NC(=O)[C@@H]1C[C@@H](Oc2nccc3cc(OC)ccc23)CN1C(=O)C(Nc1nc(OC)cc(OC)n1)C(C)C)C(=O)NS(=O)(=O)C1CC1` (mixture of isomers) [Compound 5, N-(4,6-dimethoxy-2-pyrimidinyl)valyl-(4R)—N-((1R,2S)-1-((cyclopropylsulfonyl)carbamoyl)-2-vinylcyclopropyl)-4-((6-methoxy-1-isoquinolinyl)oxy)-L-prolinamide], the IC50 (usually the concentration at which inhibition is half-maximal) in experiment [1] (setting [3]) fell in the range of 20 to 200 nM. For the same compound, the EC50 – broadly, the concentration giving half of the maximal effect – in experiment [2] was 100 to 1000 nM.
For `C=C[C@@H]1C[C@]1(NC(=O)[C@@H]1C[C@@H](Oc2nccc3cc(OC)ccc23)CN1C(=O)C(Nc1cc(C#N)ccn1)C(C)C)C(=O)NS(=O)(=O)C1CC1` (mixture of isomers) [Compound 11, N-(4-cyano-2-pyridinyl)valyl-(4R)—N-((1R,2S)-1-((cyclopropylsulfonyl)carbamoyl)-2-vinylcyclopropyl)-4-((6-methoxy-1-isoquinolinyl)oxy)-L-prolinamide], in that order: 0.6 to 20 nM and 3 to 100 nM.
For `C=C[C@@H]1C[C@]1(NC(=O)[C@@H]1C[C@@H](Oc2nc(N(C)C)cc3cc(OC)ccc23)CN1C(=O)C(Nc1ccccc1)C(C)(C)C)C(=O)NS(=O)(=O)C1CC1` (single isomer, unassigned) [19 first isomer], in that order: 0.6 to 20 nM and 3 to 100 nM.
For the compound `C=C[C@@H]1C[C@]1(NC(=O)[C@@H]1C[C@@H](Oc2ncc(OC)c3ccc(Cl)cc23)CN1C(=O)C(Nc1ccc(OC(F)F)nc1)C(C)(C)C)C(=O)NS(=O)(=O)C1CC1` (single isomer, unassigned) [409 - first isomer], the IC50 in experiment [1] (setting [3]) was 20 to 200 nM.
With `C=C[C@@H]1C[C@]1(NC(=O)[C@@H]1C[C@@H](Oc2ncc(OC)c3ccc(Cl)cc23)CN1C(=O)C(Nc1ccc(OC(F)F)nc1)C(C)(C)C)C(=O)NS(=O)(=O)C1CC1` (single isomer, unassigned) [409 - second isomer], the IC50 in experiment [1] (setting [3]) was above 200 nM.
Consider `C=C[C@@H]1C[C@]1(NC(=O)[C@@H]1C[C@@H](Oc2ncc(OC)c3ccc(Cl)cc23)CN1C(=O)[C@H](Nc1cccc(C(=O)NC(C)(C)c2ccccc2)c1)C(C)(C)C)C(=O)NS(=O)(=O)C1CC1` (single isomer, unassigned; isomer 3) [216 second isomer], for which, in experiment [1] (NS3/4A BMS strain; activity range class; read-out: HCV Protease (IC50)), the IC50 is above 200 nM.
Consider `C=C[C@@H]1C[C@]1(NC(=O)[C@@H]1C[C@@H](Oc2ncc(OC)c3ccc(Cl)cc23)CN1C(=O)[C@H](Nc1cccc(F)c1F)C(C)(C)C)C(=O)NS(=O)(=O)C1CC1` [208 second isomer, N-(2,3-difluorophenyl)-3-methyl-D-valyl-(4R)-4-((7-chloro-4-methoxy-1-isoquinolinyl)oxy)-N-((1R,2S)-1-((cyclopropylsulfonyl)carbamoyl)-2-vinylcyclopropyl)-L-prolinamide], for which the IC50 in experiment [1] (setting [3]) was above 200 nM.
As for `C=C[C@@H]1C[C@]1(NC(=O)[C@@H]1C[C@@H](Oc2ncc(OC)c3ccc(Cl)cc23)CN1C(=O)[C@H](Nc1ccc(S(=O)(=O)NC(C)(C)C)cc1)C(C)(C)C)C(=O)NS(=O)(=O)C1CC1` [214 second isomer, N-(4-(tert-butylsulfamoyl)phenyl)-3-methyl-D-valyl-(4R)-4-((7-chloro-4-methoxy-1-isoquinolinyl)oxy)-N-((1R,2S)-1-((cyclopropylsulfonyl)carbamoyl)-2-vinylcyclopropyl)-L-prolinamide], in experiment [1] (setting [3]), the IC50 is above 200 nM.
On the same count and under the same terms, the figure for `C=C[C@@H]1C[C@]1(NC(=O)[C@@H]1C[C@@H](Oc2ncc(OC)c3ccc(Cl)cc23)CN1C(=O)[C@H](Nc1cccc(C(N)=O)c1)C(C)(C)C)C(=O)NS(=O)(=O)C1CC1` [217 second isomer, N-(3-carbamoylphenyl)-3-methyl-D-valyl-(4R)-4-((7-chloro-4-methoxy-1-isoquinolinyl)oxy)-N-((1R,2S)-1-((cyclopropylsulfonyl)carbamoyl)-2-vinylcyclopropyl)-L-prolinamide] is above 200 nM; for `C=C[C@@H]1C[C@]1(NC(=O)[C@@H]1C[C@@H](Oc2ncc(OC)c3ccc(Cl)cc23)CN1C(=O)[C@H](Nc1ccc(C(N)=O)cc1)C(C)(C)C)C(=O)NS(=O)(=O)C1CC1` [226 second isomer, N-(4-carbamoylphenyl)-3-methyl-D-valyl-(4R)-4-((7-chloro-4-methoxy-1-isoquinolinyl)oxy)-N-((1R,2S)-1-((cyclopropylsulfonyl)carbamoyl)-2-vinylcyclopropyl)-L-prolinamide] it is above 200 nM.
For the compound `C=C[C@@H]1C[C@]1(NC(=O)[C@@H]1C[C@@H](Oc2nc3c(c4cc(OC)ccc24)OCCN3C)CN1C(=O)[C@@H](Nc1ccc(F)c(F)c1)C(C)(C)C)C(=O)NS(=O)(=O)C1CC1` [235 first isomer, N-(3,4-difluorophenyl)-3-methyl-L-valyl-(4R)—N-((1R,2S)-1-((cyclopropylsulfonyl)carbamoyl)-2-vinylcyclopropyl)-4-((9-methoxy-4-methyl-3,4-dihydro-2H-[1,4]oxazino[3,2-c]isoquinolin-6-yl)oxy)-L-prolinamide], the IC50 in experiment [1] (setting [3]) is above 200 nM.

The values above are taken from patent US7772180B2, “Hepatitis C virus inhibitors” (Bristol-Myers Squibb Company, priority 2006, dated 2010).
